≈ marks a conversion by molar mass, not a printed value. One block for each compound: values may come before it.
Experiments:
human DNA ligase I = human DNA ligase I (Homo sapiens, UniProt P18858); assay: nick-sealing DNA ligase assay (gel electrophoresis), DNA ligase I; type: biochemical; conditions: ATP 10 μM, DNA substrate 50 nM, human DNA ligase I 0.5 nM; for IC50: read-out: IC50 against human DNA ligase I (converted)
Experimental: In this study, a standard nick-sealing assay was used to identify potential human DNA ligase inhibitors from representative flavonoids. […] Selected flavonoids with the resorcinol moiety in their A rings were tested as potential DNA ligase inhibitors. Epigallocatechin gallate (EGCG) is also a flavonoid found in plants, herbs, fruits, and green tea. Rutin is a flavonoid glycoside combining the flavonol quercetin and the disaccharide rutinose found in a wide variety of plants, including citrus. Quercetin is a plant flavonoid found in many fruits, vegetables, and other foods.
Figure 3 The effects of selected flavonoids on human DNA ligase I activity. DNA ligase assays were performed in reaction mixtures in the presence of ATP (10 μM), DNA substrate (50 nM), and human DNA ligase I (0.5 nM) as previously described.
Figure 4 The effects of cyaniding and rosinidin on human DNA ligase I activity. DNA ligase assays were performed in reaction mixtures in the presence of ATP (10 μM), DNA substrate (50 nM), and human DNA ligase I (0.5 nM) as previously described.
(§1) A 39 base pair nicked duplex was constructed and used as a substrate for the ligase reaction. In brief, the first 19 base pair oligonucleotide (5′-CGTAAAACGACGGCCAGTG-3′) and the second 20 base pair oligonucleotide (5′-[…]-3′) labeled with radioactive ^32P were annealed to the complementary 39 base pair oligonucleotide (5′-[…]-3′) to construct a 39 base pair nicked duplex as previously described. The resulting nicked duplex DNA was purified via 8% nondenaturing polyacrylamide gel electrophoresis.
(§2) DNA ligase I activity was routinely assayed according to a modified procedure described previously by determining the ligation of two oligonucleotides, which are hybridized to a complementary 39-mer oligonucleotide. Ligation of 5′-[^32P] end-labeled 20-mer oligonucleotide to the unlabeled 19-mer oligonucleotide was analyzed via polyacrylamide gel electrophoresis in the presence of 8 M urea. The assays were performed at least twice, and representative data are shown in this paper.

human DNA ligase III = molecular target: T1, human DNA ligase III (Homo sapiens, UniProt P49916); assay: nick-sealing DNA ligase assay, DNA ligase III; type: biochemical; conditions: ATP 10 μM, DNA substrate 50 nM; read-out: IC50 against human DNA ligase III (converted)
T1 sequence (P49916 43-1009): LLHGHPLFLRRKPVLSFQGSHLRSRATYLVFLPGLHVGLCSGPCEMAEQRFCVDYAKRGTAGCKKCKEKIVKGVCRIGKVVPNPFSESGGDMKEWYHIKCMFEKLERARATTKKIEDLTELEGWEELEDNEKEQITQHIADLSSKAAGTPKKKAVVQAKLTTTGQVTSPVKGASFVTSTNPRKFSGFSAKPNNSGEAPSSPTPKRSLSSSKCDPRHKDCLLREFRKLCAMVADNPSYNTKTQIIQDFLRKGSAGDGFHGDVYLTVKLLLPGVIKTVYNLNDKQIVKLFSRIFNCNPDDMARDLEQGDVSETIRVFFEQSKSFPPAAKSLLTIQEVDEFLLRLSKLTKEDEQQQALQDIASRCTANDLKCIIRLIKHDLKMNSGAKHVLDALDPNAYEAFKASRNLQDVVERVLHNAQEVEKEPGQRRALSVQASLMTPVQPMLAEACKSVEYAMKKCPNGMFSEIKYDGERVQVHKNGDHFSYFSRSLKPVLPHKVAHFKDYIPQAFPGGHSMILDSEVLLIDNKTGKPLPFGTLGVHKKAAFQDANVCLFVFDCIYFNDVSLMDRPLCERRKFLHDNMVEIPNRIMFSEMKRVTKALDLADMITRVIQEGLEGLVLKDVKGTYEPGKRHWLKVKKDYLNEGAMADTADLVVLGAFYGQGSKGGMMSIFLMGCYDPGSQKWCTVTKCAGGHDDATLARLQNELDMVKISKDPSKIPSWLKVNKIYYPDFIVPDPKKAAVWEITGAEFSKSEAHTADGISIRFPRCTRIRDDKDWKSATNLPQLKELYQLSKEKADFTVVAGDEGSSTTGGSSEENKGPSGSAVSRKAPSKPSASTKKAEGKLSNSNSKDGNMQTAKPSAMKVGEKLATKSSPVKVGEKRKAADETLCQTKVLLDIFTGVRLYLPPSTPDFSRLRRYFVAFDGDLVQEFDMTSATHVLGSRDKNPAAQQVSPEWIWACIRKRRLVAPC
Experimental: (§3) To validate the results from the molecular modeling studies, we also tested the effects of rutin on human DNA ligase III and IV activity.
(§4) Figure 6 The effects of rutin on human DNA ligases III and IV activities. DNA ligase assays were performed in reaction mixtures in the presence of ATP (10 μM), DNA substrate (50 nM), and human DNA ligase I (0.5 nM) as previously described.
as §1, §2

human DNA ligase IV = molecular target: T2, human DNA ligase IV (Homo sapiens, UniProt P49917); assay: nick-sealing DNA ligase assay, DNA ligase IV; type: biochemical; conditions: ATP 10 μM, DNA substrate 50 nM; read-out: IC50 against human DNA ligase IV (converted)
T2 sequence (P49917 1-911): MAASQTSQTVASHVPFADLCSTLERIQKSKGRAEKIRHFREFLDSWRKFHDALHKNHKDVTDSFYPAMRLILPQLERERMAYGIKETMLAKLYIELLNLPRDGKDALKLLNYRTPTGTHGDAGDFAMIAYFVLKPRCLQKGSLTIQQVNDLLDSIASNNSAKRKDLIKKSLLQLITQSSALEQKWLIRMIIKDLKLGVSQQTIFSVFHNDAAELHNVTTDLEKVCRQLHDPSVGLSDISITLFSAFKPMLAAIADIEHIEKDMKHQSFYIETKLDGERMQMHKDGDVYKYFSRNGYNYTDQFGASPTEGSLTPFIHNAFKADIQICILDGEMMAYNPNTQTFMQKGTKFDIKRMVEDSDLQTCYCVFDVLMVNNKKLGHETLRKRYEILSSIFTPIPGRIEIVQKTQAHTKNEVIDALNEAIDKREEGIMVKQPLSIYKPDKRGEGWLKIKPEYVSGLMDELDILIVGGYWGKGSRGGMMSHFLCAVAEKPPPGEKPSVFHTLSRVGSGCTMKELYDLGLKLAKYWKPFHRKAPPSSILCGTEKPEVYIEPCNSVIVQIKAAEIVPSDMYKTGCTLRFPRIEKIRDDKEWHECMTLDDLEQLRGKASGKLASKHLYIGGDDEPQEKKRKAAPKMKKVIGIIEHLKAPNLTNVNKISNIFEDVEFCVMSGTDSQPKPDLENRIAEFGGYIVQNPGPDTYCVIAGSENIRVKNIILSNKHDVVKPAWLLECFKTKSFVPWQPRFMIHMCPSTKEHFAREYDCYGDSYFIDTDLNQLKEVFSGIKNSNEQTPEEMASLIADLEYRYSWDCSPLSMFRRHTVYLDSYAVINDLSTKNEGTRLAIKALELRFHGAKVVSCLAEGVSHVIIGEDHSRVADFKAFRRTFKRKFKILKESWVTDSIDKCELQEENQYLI
Experimental: as §3, §4, §1, §2

Caco-2 cells = assay: Caco-2 cell growth and morphology (phase contrast microscopy); type: cell-based, human
Source text: (§5) Some flavonoids are known to be cytotoxic to different types of human cancer cell lines. […] Phase contrast views reveal that rutin-treated cells are relatively thin and shrunken, consistent with the reduced cellular densities commonly observed in cultures exposed to cytotoxic agents (Figure 7A). […] The γH2AX is a sensitive and selective marker for DSBs, as phosphorylation of H2AX (γH2AX) is increased at such breakage sites. […] Phase contrast micrographs of Caco-2 cells treated with various concentrations of rutin for 48 h. Photographs taken at 10× magnification: (A) increased expressions of γH2AX protein in Caco-2 cells incubated with rutin for 48 h, compared with corresponding solvent control group, as measured via Western blot (B). The human intestinal Caco-2 cells were grown at 37 °C and 5% CO2 in a humidified atmosphere, and treated and untreated control cells were examined using an inverted phase-contrast microscope (Fisher Scientific Inverted Phase Contrast Microscope EQ-006, Pittsburgh, PA, USA) to assess cell shape and morphology.

γH2AX protein = γH2AX protein level in Caco-2 cells (Western blot); type: cell-based, human; conditions: 48 h, versus solvent control
Source text: as §5, with “(B).” for “(B). The human intestinal Caco-2 cells were grown at 37 °C and 5% CO2 in a humidified atmosphere, and treated and untreated control cells were examined using an inverted phase-contrast microscope (Fisher Scientific Inverted Phase Contrast Microscope EQ-006, Pittsburgh, PA, USA) to assess cell shape and morphology.”

Sequence of human DNA ligase I (P18858 whole entry): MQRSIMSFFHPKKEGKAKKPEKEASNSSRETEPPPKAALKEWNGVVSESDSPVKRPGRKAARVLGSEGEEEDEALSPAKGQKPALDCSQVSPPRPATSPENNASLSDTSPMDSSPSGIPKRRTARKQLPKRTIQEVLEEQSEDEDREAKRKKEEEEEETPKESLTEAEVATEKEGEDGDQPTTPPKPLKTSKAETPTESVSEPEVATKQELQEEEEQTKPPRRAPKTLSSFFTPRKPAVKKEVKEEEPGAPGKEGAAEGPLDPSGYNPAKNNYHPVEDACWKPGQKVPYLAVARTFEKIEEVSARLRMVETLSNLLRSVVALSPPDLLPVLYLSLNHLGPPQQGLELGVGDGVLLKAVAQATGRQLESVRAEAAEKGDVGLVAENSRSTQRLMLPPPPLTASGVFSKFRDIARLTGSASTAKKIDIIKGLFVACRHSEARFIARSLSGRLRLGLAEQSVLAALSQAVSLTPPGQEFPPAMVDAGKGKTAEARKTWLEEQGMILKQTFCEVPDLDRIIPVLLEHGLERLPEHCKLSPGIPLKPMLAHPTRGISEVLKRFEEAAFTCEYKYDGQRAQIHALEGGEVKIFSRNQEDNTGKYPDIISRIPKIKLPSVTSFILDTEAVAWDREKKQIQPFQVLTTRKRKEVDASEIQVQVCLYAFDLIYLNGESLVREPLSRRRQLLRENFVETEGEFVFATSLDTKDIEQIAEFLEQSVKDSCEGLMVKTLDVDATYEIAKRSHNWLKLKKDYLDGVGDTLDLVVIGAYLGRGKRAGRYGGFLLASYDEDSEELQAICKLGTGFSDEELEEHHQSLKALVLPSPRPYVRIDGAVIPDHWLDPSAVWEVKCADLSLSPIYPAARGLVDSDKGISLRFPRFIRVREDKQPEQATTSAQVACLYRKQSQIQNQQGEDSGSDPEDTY

SMILES: Oc1cc(O)c2c(c1)O[C@H](c1cc(O)c(O)c(O)c1)[C@H](O)C2 [epigallocatechin]
IC50 (human DNA ligase I): 1630 nM

SMILES: C[C@@H]1O[C@@H](OC[C@H]2O[C@@H](Oc3c(-c4ccc(O)c(O)c4)oc4cc(O)cc(O)c4c3=O)[C@H](O)[C@@H](O)[C@@H]2O)[C@H](O)[C@H](O)[C@H]1O [rutin]
IC50 (human DNA ligase I): 4910 nM
IC50 (human DNA ligase III): 819 nM
IC50 (human DNA ligase IV): 1640 nM
effect on cell growth (Caco-2 cells; Caco-2 cells, 48 h, concentrations lower than IC50): inhibitory effect on cell growth
IC50 (Caco-2 cells; Homo sapiens, Caco-2): 25 µg/mL (≈ 40.9 µM)
levels of γH2AX protein (γH2AX protein): increases levels of γH2AX protein in a dose-dependent manner

Other lines, results leading:

IC50 (human DNA ligase I): ~3480 nM
SMILES: Oc1cc(O)c2cc(O)c(-c3ccc(O)c(O)c3)[o+]c2c1 [cyanidin]

IC50 (human DNA ligase I): 1650 nM
SMILES: O=c1c(O)c(-c2ccc(O)c(O)c2)oc2cc(O)cc(O)c12 [quercetin]

activity against human DNA ligase I (human DNA ligase I): little activity
SMILES: COc1cc(O)c2cc(O)c(-c3ccc(O)c(OC)c3)[o+]c2c1 [rosinidin]

Reference: publication PMC11855144, “Role of Human DNA Ligases in Mediating Pharmacological Activities of Flavonoids” (International Journal of Molecular Sciences, 2025)
